The text below walks through data of ChEMBL document CHEMBL1221228, “Norselic acids A-E, highly oxidized anti-infective steroids that deter mesograzer predation, from the Antarctic sponge Crella sp” (2009).

Common to all, as to format: functional
Assay [1] deals with Leishmania. Put plainly: Antileishmanial activity against Leishmania.
The subject of assay [2] is Staphylococcus aureus. Put plainly: Antimicrobial activity against methicillin sensitive Staphylococcus aureus 375 at 30 ug after 18 hrs by agar diffusion method. As to conditions: Staphylococcus aureus, 375, 18 h; read-out: IZ. Background: A growth-free zone around the sample is the usual read-out of agar diffusion tests.
Assay [3] concerns Staphylococcus aureus. The assay can be described thus: Antimicrobial activity against methicillin sensitive Staphylococcus aureus 310 at 30 ug after 18 hrs by agar diffusion method. As to conditions: Staphylococcus aureus, 310, 18 h; read-out: IZ.
The test system of assay [4] is Enterococcus faecium. The assay can be described thus: Antimicrobial activity against vancomycin-resistant Enterococcus faecium 379 at 30 ug after 18 hrs by agar diffusion method. To be noted: Enterococcus faecium, 379, 18 h; read-out: IZ.
Assay [5] relates to Escherichia coli. The assay can be described thus: Antimicrobial activity against Escherichia coli 389 at 30 ug after 18 hrs by agar diffusion method. To be noted: Escherichia coli, 389, 18 h; read-out: IZ.
In assay [6] the test system is Candida albicans. Put plainly: Antimicrobial activity against Candida albicans 54 at 30 ug after 18 hrs by agar diffusion method. To be noted: Candida albicans, 54, 18 h; read-out: IZ.
For assay [7], the system named is Escherichia coli. The assay can be described thus: Antimicrobial activity against Escherichia coli 389 assessed as hazy zone of inhibition at 30 ug after 18 hrs by agar diffusion method. As to conditions: Escherichia coli, 389, 18 h; read-out: IZ.
Assay [8] has as its system Escherichia coli. The assay can be described thus: Antimicrobial activity against Escherichia coli 442 at 5 ug after 18 hrs by agar diffusion method. As to conditions: Escherichia coli, 442, 18 h; read-out: IZ.
Assay [9] has as its system Escherichia coli. Put plainly: Antimicrobial activity against Escherichia coli 389 at 5 ug after 18 hrs by agar diffusion method. To be noted: Escherichia coli, 389, 18 h; read-out: IZ.
Assay [10] deals with Candida albicans. Put plainly: Antimicrobial activity against Candida albicans 54 at 5 ug after 18 hrs by agar diffusion method. To be noted: Candida albicans, 54, 18 h; read-out: IZ.
Assay [11] concerns Escherichia coli. The assay can be described thus: Antimicrobial activity against Escherichia coli 442 at 30 ug after 18 hrs by agar diffusion method. As to conditions: Escherichia coli, 442, 18 h; read-out: IZ.
In assay [12] the test system is Escherichia coli. The assay can be described thus: Antimicrobial activity against Escherichia coli 442 assessed as hazy zone of inhibition at 30 ug after 18 hrs by agar diffusion method. As to conditions: Escherichia coli, 442, 18 h; read-out: IZ.
Assay [13] relates to Odontaster validus. Put plainly: Reduction of food intake in Odontaster validus assessed as rejection of food pellets after 72 hrs relative to control. Also on record: scale not given: the % may be the effect or the level left.
For assay [14], the system named is Escherichia coli. Put plainly: Antimicrobial activity against Escherichia coli 442 at 200 ug after 18 hrs by agar diffusion method. As to conditions: Escherichia coli, 442, 18 h; read-out: IZ.
Assay [15] concerns Escherichia coli. The assay can be described thus: Antimicrobial activity against Escherichia coli 389 at 200 ug after 18 hrs by agar diffusion method. To be noted: Escherichia coli, 389, 18 h; read-out: IZ.
In assay [16] the test system is Candida albicans. Put plainly: Antimicrobial activity against Candida albicans 54 at 200 ug after 18 hrs by agar diffusion method. To be noted: Candida albicans, 54, 18 h; read-out: IZ.
Assay [17] has as its system Staphylococcus aureus. Put plainly: Antimicrobial activity against methicillin sensitive Staphylococcus aureus 375 assessed as very hazy zone of inhibition at 200 ug after 18 hrs by agar diffusion method. To be noted: Staphylococcus aureus, 375, 18 h; read-out: IZ.
The test system of assay [18] is Staphylococcus aureus. Put plainly: Antimicrobial activity against methicillin-resistant Staphylococcus aureus 310 assessed as hazy zone of inhibition at 200 ug after 18 hrs by agar diffusion method. To be noted: Staphylococcus aureus, 310, 18 h; read-out: IZ.
Assay [19] deals with Enterococcus faecium. The assay can be described thus: Antimicrobial activity against vancomycin-resistant Enterococcus faecium 379 assessed as hazy zone of inhibition at 200 ug after 18 hrs by agar diffusion method. To be noted: Enterococcus faecium, 379, 18 h; read-out: IZ.
Assay [20] deals with Staphylococcus aureus. The assay can be described thus: Antimicrobial activity against methicillin sensitive Staphylococcus aureus 375 at 1 unit after 18 hrs by agar diffusion method.
In assay [21] the test system is Staphylococcus aureus. Put plainly: Antimicrobial activity against methicillin sensitive Staphylococcus aureus 310 at 1 unit after 18 hrs by agar diffusion method.
Assay [22] relates to Enterococcus faecium. Put plainly: Antimicrobial activity against vancomycin-resistant Enterococcus faecium 379 at 1 unit after 18 hrs by agar diffusion method.
The test system of assay [23] is Escherichia coli. Put plainly: Antimicrobial activity against Escherichia coli 442 at 1 unit after 18 hrs by agar diffusion method.
Assay [24] deals with Candida albicans. The assay can be described thus: Antimicrobial activity against Candida albicans 54 at 1 unit after 18 hrs by agar diffusion method.
Assay [25] relates to Staphylococcus aureus. The assay can be described thus: Antimicrobial activity against methicillin sensitive Staphylococcus aureus 375 assessed as hazy zone of inhibition at 1 unit after 18 hrs by agar diffusion method.

As for `C=C(C)[C@@](O)(CC)CC[C@@H](C)[C@H]1CC[C@H]2[C@@H]3CCC4=CC(=O)CC[C@]4(C)[C@H]3CC[C@]12C(=O)O` [NORSELIC ACID D], the Activity in assay [1] is 2 µM.
Consider `NC[C@H]1O[C@H](O[C@H]2[C@H](O)[C@@H](O[C@H]3O[C@H](CO)[C@@H](O)[C@H](N)[C@H]3O)[C@H](N)C[C@@H]2N)[C@H](O)[C@@H](O)[C@@H]1O` [KANAMYCIN], for which the zone of inhibition at 30 µg/disc in [2] is 15 mm; in assay [3], 0 mm; in [4] it was 10 mm; in assay [5], 21 mm; in [6], 0 mm; in [7], 37 mm.
Regarding `CO[C@H]1/C=C/O[C@@]2(C)Oc3c(C)c(O)c4c(O)c(c(/C=N/N5CCN(C)CC5)c(O)c4c3C2=O)NC(=O)/C(C)=C\C=C\[C@H](C)[C@H](O)[C@@H](C)[C@@H](O)[C@@H](C)[C@H](OC(C)=O)[C@@H]1C` [RIFAMPIN], the zone of inhibition at 5 µg/disc is 6 mm in assay [8], 20 mm in assay [9] and 0 mm in [10].
In turn, `C=C(C)[C@@](O)(CC)CC[C@@H](C)[C@H]1CC[C@H]2[C@@H]3CC[C@H]4CC(=O)C=C[C@]4(C)[C@H]3CC[C@]12C(=O)O` [NORSELIC ACID B] displayed an Activity in assay [1] of 2.4 µM.
Turning to `CO[C@@]1(NC(=O)Cc2cccs2)C(=O)N2C(C(=O)O)=C(COC(N)=O)CS[C@@H]21` [CEFOXITIN], the zone of inhibition at 30 µg/disc in assay [11] amounted to 18 mm; in assay [5] it was 22 mm; in assay [6], 0 mm; in [7] it was 26 mm; in assay [12], 26 mm.
For the compound `C=C(C)[C@@](O)(CC)CC[C@@H](C)[C@H]1CC[C@H]2[C@@H]3C=CC4=CC(=O)C=C[C@]4(C)[C@H]3CC[C@]12C(=O)O` [NORSELIC ACID A], the Activity came out at 2.5 µM in [1] and 35% in [13]. The zone of inhibition at 200 µg/disc in assay [14] is 0 mm; in assay [15] it was 0 mm; in assay [16], 8 mm; in assay [17] it was 8 mm; in [18], 9 mm; in [19], 8 mm.
Take `C=C(CC[C@@H](C)[C@H]1CC[C@H]2[C@@H]3CCC4=CC(=O)C=C[C@]4(C)[C@H]3CC[C@]12C(=O)O)C(C)C` [NORSELIC ACI C]: the Activity in [1] was found to be 2.6 µM.
Take `CN[C@H](CC(C)C)C(=O)N[C@H]1C(=O)N[C@@H](CC(N)=O)C(=O)N[C@H]2C(=O)N[C@H]3C(=O)N[C@H](C(=O)N[C@H](C(=O)O)c4cc(O)cc(O)c4-c4cc3ccc4O)[C@H](O)c3ccc(c(Cl)c3)Oc3cc2cc(c3O[C@@H]2O[C@H](CO)[C@@H](O)[C@H](O)[C@H]2O[C@H]2C[C@](C)(N)[C@H](O)[C@H](C)O2)Oc2ccc(cc2Cl)[C@H]1O` [VANCOMYCIN]: the zone of inhibition at 30 µg/disc in assay [2] was determined as 19 mm; in assay [3], 15 mm; in assay [4], 0 mm; in assay [5], 17 mm; in [6] it was 0 mm; in [7], 25 mm.
`Cc1onc(-c2ccccc2)c1C(=O)N[C@@H]1C(=O)N2[C@@H]1SC(C)(C)[C@@H]2C(=O)O` [OXACILLIN]: the “inhibition zone (IZ)” value in assay [20] was 18 mm; in [21], 0 mm; in assay [22], 0 mm; in assay [23] it was 0 mm; in [24], 0 mm; in assay [25] it was 22 mm. Also, the zone of inhibition at 30 µg/disc in assay [7] came to 8 mm.
`C=C(C)[C@@](CC)(CC[C@@H](C)[C@H]1CC[C@H]2[C@@H]3C=CC4=CC(=O)C=C[C@]4(C)[C@H]3CC[C@]12C(=O)O)OC(C)=O` [NORSELIC ACID E] returned an Activity in assay [1] of 3.6 µM.
